From PubChem BioAssay (NCI)
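All cell lines were grown in 96-well plates and treated with compound for 48 hours. GI50 = concentration required for 50% inhibition of growth. The concentration for full growth arrest is given as TGI.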

Assays:
Test in all cases: NCI tumour cell line growth inhibition, 48 h
[1] = system: 786-0 renal
[2] = system: A498 renal
[3] = system: A549 NSCLC
[4] = system: ACHN renal
[5] = system: BT-549 breast
[6] = system: CAKI-1 renal
[7] = system: CCRF-CEM leukemia
[8] = system: COLO 205 colon
[9] = system: DU-145 prostate
[10] = system: EKVX NSCLC
[11] = system: HCC-2998 colon
[12] = system: HCT-116 colon
[13] = system: HCT-15 colon
[14] = system: HL-60(TB) leukemia
[15] = system: HOP-62 NSCLC
[16] = system: HOP-92 NSCLC
[17] = system: HS 578T breast
[18] = system: HT29 colon
[19] = system: IGROV1 ovarian
[20] = system: K-562 leukemia
[21] = system: KM12 colon
[22] = system: M14 melanoma
[23] = system: MALME-3M melanoma
[24] = system: MCF7 breast
[25] = system: MDA-MB-231 breast
[26] = system: MDA-MB-435
[27] = system: MOLT-4 leukemia
[28] = system: NCI-H226 lung
[29] = system: NCI-H23 lung
[30] = system: NCI-H460 lung
[31] = system: NCI-H522 lung
[32] = system: NCI/ADR-RES ovarian
[33] = system: OVCAR-4 ovarian
[34] = system: OVCAR-5 ovarian
[35] = system: OVCAR-8 ovarian
[36] = system: PC-3 prostate
[37] = system: RPMI-8226 leukemia
[38] = system: RXF 393 renal
[39] = system: SF-268 CNS
[40] = system: SF-295 CNS
[41] = system: SF-539 CNS
[42] = system: SK-MEL-2 melanoma
[43] = system: SK-MEL-28 melanoma
[44] = system: SK-MEL-5 melanoma
[45] = system: SK-OV-3 ovarian
[46] = system: SN12C renal
[47] = system: SNB-19 CNS
[48] = system: SNB-75 CNS
[49] = system: SR leukemia
[50] = system: SW-620 colon
[51] = system: T-47D breast
[52] = system: TK-10 renal
[53] = system: U251 CNS
[54] = system: UACC-257 melanoma
[55] = system: UACC-62 melanoma
[56] = system: UO-31 renal
[57] = system: LOX IMVI melanoma
[58] = system: OVCAR-3 ovarian

In the case of `O=c1oc2ccc(-c3ccc(F)cc3F)cc2c(=O)n1-c1ccc(F)c(F)c1`, the GI50 [1] is reported as 1.67 µM, the TGI [1] is reported as over 50 µM and the GI50 [2] is reported as 0.374 µM. The TGI [2] was 1.7 µM, the GI50 [3] was 1.58 µM and the TGI [3] was over 50 µM. It also gave a GI50 [4] of 1.41 µM, a TGI [4] of 4.88 µM and a GI50 [5] of 1.35 µM. It also gave a TGI [5] of 4.9 µM, a GI50 [6] of 0.963 µM and a TGI [6] of 3.21 µM. For the same compound, the GI50 [7] was 1.47 µM, the TGI [7] was over 50 µM and the GI50 [8] was 8.25 µM. The TGI [8] was 27.1 µM, the GI50 [9] was 1.75 µM and the TGI [9] was over 50 µM. It also gave a GI50 [10] of 1.46 µM, a TGI [10] of 7.35 µM and a GI50 [11] of 1.7 µM. It also gave a TGI [11] of 48.7 µM, a GI50 [12] of 1.26 µM and a TGI [12] of 5.43 µM. For the same compound, the GI50 [13] was 1.34 µM, the TGI [13] was 5.24 µM and the GI50 [14] was 1.06 µM. For the same compound, the TGI [14] was 3.07 µM, the GI50 [15] was 1.41 µM and the TGI [15] was 5.94 µM. It also gave a GI50 [16] of 0.389 µM, a TGI [16] of 2.28 µM and a GI50 [17] of 1.57 µM. It also gave a TGI [17] of over 50 µM, a GI50 [18] of 8.9 µM and a TGI [18] of over 50 µM. For the same compound, the GI50 [19] was 1.7 µM, the TGI [19] was over 50 µM and the GI50 [20] was 1.16 µM. The TGI [20] was over 50 µM, the GI50 [21] was 1.56 µM and the TGI [21] was 5.26 µM. For the same compound, the GI50 [22] was 1.61 µM, the TGI [22] was 35.5 µM and the GI50 [23] was 0.874 µM. It also gave a TGI [23] of 2.51 µM, a GI50 [24] of 1.22 µM and a TGI [24] of over 50 µM. The GI50 [25] was 0.894 µM, the TGI [25] was 2.34 µM and the GI50 [26] was 1.28 µM. It also gave a TGI [26] of 5.46 µM, a GI50 [27] of 1.48 µM and a TGI [27] of 6.73 µM. For the same compound, the GI50 [28] was 1.41 µM, the TGI [28] was 6.24 µM and the GI50 [29] was 0.936 µM. For the same compound, the TGI [29] was 2.97 µM, the GI50 [30] was 1.32 µM and the TGI [30] was over 50 µM. It also gave a GI50 [31] of 0.666 µM, a TGI [31] of 8.62 µM and a GI50 [32] of 1.32 µM. For the same compound, the TGI [32] was over 50 µM, the GI50 [33] was 1.35 µM and the TGI [33] was over 50 µM. The GI50 [34] was 1.62 µM, the TGI [34] was over 50 µM and the GI50 [35] was 1.62 µM. It also gave a TGI [35] of over 50 µM, a GI50 [36] of 1.42 µM and a TGI [36] of over 50 µM. For the same compound, the GI50 [37] was 0.589 µM, the TGI [37] was 2.4 µM and the GI50 [38] was 1.27 µM. It also gave a TGI [38] of 4.02 µM, a GI50 [39] of 1.38 µM and a TGI [39] of over 50 µM. For the same compound, the GI50 [40] was 1.15 µM, the TGI [40] was 3.21 µM and the GI50 [41] was 1.69 µM. For the same compound, the TGI [41] was 13.8 µM, the GI50 [42] was 0.797 µM and the TGI [42] was 3.07 µM. It also gave a GI50 [43] of 1.19 µM, a TGI [43] of 8.2 µM and a GI50 [44] of 0.562 µM. It also gave a TGI [44] of 1.44 µM, a GI50 [45] of 1.27 µM and a TGI [45] of over 50 µM. The GI50 [46] was 1.03 µM, the TGI [46] was 4.29 µM and the GI50 [47] was 1.61 µM. The TGI [47] was over 50 µM, the GI50 [48] was 0.775 µM and the TGI [48] was 2.54 µM. It also gave a GI50 [49] of 1.87 µM, a TGI [49] of over 50 µM and a GI50 [50] of 1.77 µM. It also gave a TGI [50] of over 50 µM, a GI50 [51] of 0.418 µM and a TGI [51] of 3.64 µM. It also gave a GI50 [52] of 1.61 µM, a TGI [52] of 16.9 µM and a GI50 [53] of 1.53 µM. It also gave a TGI [53] of over 50 µM, a GI50 [54] of 0.73 µM and a TGI [54] of 4.04 µM. The GI50 [55] was 0.519 µM, the TGI [55] was 1.67 µM and the GI50 [56] was 1.1 µM. It also gave a TGI [56] of 4.67 µM.

`CC1OC(O[C@@H]2[C@H](O)C(CO)OC(O[C@H]3COC(O[C@H]4CC[C@]5(C)[C@H]6CC[C@]78OC[C@@]9(CCC(C)(C)C[C@H]97)[C@H](O)C[C@@]8(C)[C@]6(C)CC[C@H]5C4(C)C)[C@@H](OC4OC(CO)[C@@H](O)[C@@H](O)[C@@H]4O)[C@@H]3O)[C@H]2OC2OC[C@@H](O)[C@@H](O)[C@@H]2O)[C@@H](O)[C@@H](O)[C@H]1O` (some centres undefined) showed a GI50 [1] of 2.8 µM, a TGI [1] of 5.16 µM and a GI50 [2] of 2.44 µM. The TGI [2] was 4.59 µM, the GI50 [3] was 3.07 µM and the TGI [3] was 5.91 µM. The GI50 [4] was 0.621 µM, the TGI [4] was 2.57 µM and the GI50 [5] was 2.36 µM. The TGI [5] was 4.55 µM, the GI50 [6] was 2.39 µM and the TGI [6] was 4.51 µM. For the same compound, the GI50 [7] was 0.698 µM, the TGI [7] was 3.26 µM and the GI50 [8] was 2.29 µM. For the same compound, the TGI [8] was 4.5 µM, the GI50 [9] was 2.47 µM and the TGI [9] was 4.92 µM. It also gave a GI50 [10] of 3.04 µM, a TGI [10] of 5.48 µM and a GI50 [11] of 1.56 µM. It also gave a TGI [11] of 3.39 µM, a GI50 [12] of 1.78 µM and a TGI [12] of 3.68 µM. The GI50 [13] was 2.52 µM, the TGI [13] was 4.78 µM and the GI50 [14] was 0.345 µM. It also gave a TGI [14] of 0.7 µM, a GI50 [15] of 2.57 µM and a TGI [15] of 4.94 µM. For the same compound, the GI50 [16] was 1.85 µM, the TGI [16] was 3.81 µM and the GI50 [17] was 2.45 µM. For the same compound, the TGI [17] was 5.5 µM, the GI50 [18] was 2.8 µM and the TGI [18] was 5.23 µM. For the same compound, the GI50 [19] was 2.31 µM, the TGI [19] was 4.65 µM and the GI50 [20] was 2.95 µM. The TGI [20] was 5.98 µM, the GI50 [57] was 2.06 µM and the TGI [57] was 4.11 µM. The GI50 [22] was 1.44 µM, the TGI [22] was 3.35 µM and the GI50 [23] was 2.58 µM. For the same compound, the TGI [23] was 4.96 µM, the GI50 [24] was 2.23 µM and the TGI [24] was 4.83 µM. It also gave a GI50 [25] of 2.07 µM, a TGI [25] of 4.18 µM and a GI50 [26] of 2.16 µM. It also gave a TGI [26] of 4.22 µM, a GI50 [27] of 0.535 µM and a TGI [27] of 3.27 µM. For the same compound, the GI50 [28] was 2.73 µM, the TGI [28] was 5.73 µM and the GI50 [29] was 1.91 µM. For the same compound, the TGI [29] was 4.14 µM, the GI50 [30] was 2.62 µM and the TGI [30] was 5.35 µM. For the same compound, the GI50 [31] was 2.45 µM, the TGI [31] was 4.69 µM and the GI50 [32] was 2.64 µM. The TGI [32] was 5.4 µM, the GI50 [58] was 2.75 µM and the TGI [58] was 5.04 µM. For the same compound, the GI50 [33] was 2.25 µM, the TGI [33] was 4.82 µM and the GI50 [34] was 2.52 µM. For the same compound, the TGI [34] was 4.92 µM, the GI50 [35] was 3.5 µM and the TGI [35] was 6.83 µM. The GI50 [36] was 2.56 µM, the TGI [36] was 4.77 µM and the GI50 [37] was 1.93 µM. For the same compound, the TGI [37] was 4.68 µM, the GI50 [38] was 0.566 µM and the TGI [38] was 2.85 µM. For the same compound, the GI50 [39] was 2.55 µM, the TGI [39] was 5.13 µM and the GI50 [40] was 2.58 µM. For the same compound, the TGI [40] was 4.76 µM, the GI50 [41] was 1.55 µM and the TGI [41] was 3.51 µM. For the same compound, the GI50 [42] was 2.32 µM, the TGI [42] was 4.57 µM and the GI50 [43] was 0.809 µM. The TGI [43] was 2.77 µM, the GI50 [44] was 2.27 µM and the TGI [44] was 4.37 µM. It also gave a GI50 [45] of 2.41 µM, a TGI [45] of 4.53 µM and a GI50 [46] of 1.68 µM. For the same compound, the TGI [46] was 3.56 µM, the GI50 [47] was 2.14 µM and the TGI [47] was 4.43 µM. The GI50 [48] was 0.256 µM, the TGI [48] was 1.41 µM and the GI50 [49] was 0.0169 µM. The TGI [49] was 1.52 µM, the GI50 [50] was 2.55 µM and the TGI [50] was 5.12 µM. For the same compound, the GI50 [52] was 3.59 µM, the TGI [52] was 5.97 µM and the GI50 [53] was 2.69 µM. For the same compound, the TGI [53] was 5.13 µM, the GI50 [54] was 2.85 µM and the TGI [54] was 5.17 µM. The GI50 [55] was 2.27 µM, the TGI [55] was 4.34 µM and the GI50 [56] was 0.323 µM. For the same compound, the TGI [56] was 1.14 µM.
